Assay results taken from US20250255298A1, “PENETRATION PROMOTER” (IBIDEN CO., LTD., priority 2023, published 2025).

Test system: Rice (variety: Nipponbare) leaves
Assay: Test on penetrability in rice (cut leaves soaked in test penetrant, LC-MS/MS of leaf extract)
Details: penetration promoter solutions of Examples 1 and 2
Procedure: (§1) A solution obtained by adding 40 μL (20 mg) of pine oil (manufactured by ease Inc.) to 2000 mL of each of the penetration promoter solutions 1 to 8 was used as a terpene test penetrant.
(§2) A liquid obtained by dissolving 450 mg of ground nucleic acid particles (manufactured by Kenkououendan Inc.) in 2000 mL of each of the penetration promoter solutions 1 to 8 was used as a nucleic acid test penetrant.
A liquid obtained by dispersing 100 mg of soybean-derived lecithin (manufactured by FUJIFILM Wako Pure Chemical Corporation) in 2000 mL of each of the penetration promoter solutions 1 to 8 was used as a phospholipid test penetrant. • Penetrability test of each organic substance using test penetrant […]
(§3) The analysis sample was analyzed for the amount of terpene using an LC-MS/MS apparatus (LC part: DIONEX Ultimate3000, MS/MS part: Q Exactive Focus: manufactured by Thermo Fisher Scientific K.K.) under the following conditions. […] Quantification was performed from the MS-peak area value of α-pinene contained in pine oil (manufactured by ease Inc.), and the amounts of terpene penetrated into the intralobar tissue by the penetration promoter solutions 1 to 8 (Examples 1 and 2 and Comparative Examples 1 to 6) were compared. […]
For `CCCCCCCC/C=C\CCCCCCCC(=O)O` [oleic acid], the “penetrability with oleic acid as compared with terpene” value was “slightly decreased”.

Test system: soybean (variety: Fukuyutaka) leaves
Assay: Test on penetrability in soybean (absorbent cotton with test penetrant on leaf, LC-MS/MS of leaf extract)
Details: penetration promoter solutions of Examples 1 and 2
Procedure: as §1, §2
A liquid obtained by dispersing 100 mg of soybean-derived lecithin (manufactured by FUJIFILM Wako Pure Chemical Corporation) in 2000 mL of each of the penetration promoter solutions 1 to 8 was used as a phospholipid test penetrant. • Penetrability test of each organic substance using test penetrant
Four soybean (variety: Fukuyutaka) seeds were seeded, per pot, in a No. 3 pot containing Seeding Soil for Vegetables and Flowers (manufactured by Takii Co., Ltd.). […]
as §3
With `CCCCCCCC/C=C\CCCCCCCC(=O)O` [oleic acid] the “penetrability with oleic acid as compared with terpene” value was “slightly decreased”.

Test system: not given
Assay: not given
Details: indicated as common logarithmic value Log Kow or Log P; cited from earlier work
In the case of `Nc1ncnc2nc[nH]c12` [adenine], the octanol/water partition coefficient is given as −0.1. In the case of `Nc1ncnc2c1ncn2[C@@H]1O[C@H](COP(=O)(O)O)[C@@H](O)[C@H]1O` [adenosine monophosphate], the octanol/water partition coefficient is given as −3.1. For `Nc1ncnc2c1ncn2[C@@H]1O[C@H](CO)[C@@H](O)[C@H]1O` [adenosine], the octanol/water partition coefficient is listed as −1.2. In the case of `C[C@H](N)C(=O)O` [alanine], the octanol/water partition coefficient is listed as −2.85. For `N[C@@H](CS)C(=O)O` [cysteine], the octanol/water partition coefficient is given as −2.49. In the case of `Nc1cc[nH]c(=O)n1` [cytosine], the octanol/water partition coefficient is listed as −1.73. For `N[C@@H](CCC(=O)O)C(=O)O` [glutamic acid], the octanol/water partition coefficient is given as −3.69. In the case of `NC(=O)CC[C@H](N)C(=O)O` [glutamine], the octanol/water partition coefficient is given as −3.64. In the case of `Nc1nc2nc[nH]c2c(=O)[nH]1` [guanine], the octanol/water partition coefficient is given as −0.91. In the case of `Nc1nc2c(ncn2[C@@H]2O[C@H](CO)[C@@H](O)[C@H]2O)c(=O)[nH]1` [guanosine], the octanol/water partition coefficient is listed as −1.9. For `N[C@@H](Cc1c[nH]cn1)C(=O)O` [histidine], the octanol/water partition coefficient is given as −3.32. In the case of `CC[C@H](C)[C@H](N)C(=O)O` [isoleucine], the octanol/water partition coefficient is listed as −1.70. In the case of `CC(C)C[C@H](N)C(=O)O` [leucine], the octanol/water partition coefficient is given as −1.52. In the case of `NCCCC[C@H](N)C(=O)O` [lysine], the octanol/water partition coefficient is listed as −3.05. In the case of `CSCC[C@H](N)C(=O)O` [methionine], the octanol/water partition coefficient is listed as −1.87. For `CCCCCCCC/C=C\CCCCCCCC(=O)O` [oleic acid], the octanol/water partition coefficient is listed as 7.73. In the case of `N[C@@H](Cc1ccccc1)C(=O)O` [phenylalanine], the octanol/water partition coefficient is given as −1.38. For `O=C(O)[C@@H]1CCCN1` [proline], the octanol/water partition coefficient is given as −2.54. In the case of `N[C@@H](CO)C(=O)O` [serine], the octanol/water partition coefficient is listed as −3.07. For `Cc1cn([C@H]2C[C@H](O)[C@@H](COP(=O)(O)O)O2)c(=O)[nH]c1=O` [thymidine monophosphate], the octanol/water partition coefficient is listed as −2.8. For `Cc1cn([C@H]2C[C@H](O)[C@@H](CO)O2)c(=O)[nH]c1=O` [thymidine], the octanol/water partition coefficient is given as −0.93. For `Cc1c[nH]c(=O)[nH]c1=O` [thymine], the octanol/water partition coefficient is given as −0.62. In the case of `N[C@@H](Cc1c[nH]c2ccccc12)C(=O)O` [tryptophan], the octanol/water partition coefficient is listed as −1.05. For `O=c1ccn([C@@H]2O[C@H](CO)[C@@H](O)[C@H]2O)c(=O)[nH]1` [uridine], the octanol/water partition coefficient is given as −1.98. In the case of `CC(C)[C@H](N)C(=O)O` [valine], the octanol/water partition coefficient is given as −2.26.
